Laboratory results as given in publication PMC7539012, “Hyperphosphorylated tau aggregation and cytotoxicity modulators screen identified prescription drugs linked to Alzheimer's disease and cognitive functions” (Scientific Reports, 2020).
Structures can show the parent of a compound that is named as a salt.

Each molecule was assayed on T1, 1N4R p-tau (assay: p-tau aggregation modulator screen of 1280-compound library (ThS fluorescence net change over 16 h)). Details: not given.
T1 construct: made in house; host or cells: E. coli (PIMAX system)
Type: biochemical
Parameters: key to PTAI>2SD: *: PTAI>2SD; key to PTAI>3SD: *: PTAI>3SD
With COc1cccc2c1C(=O)c1c(O)c3c(c(O)c1C2=O)C[C@@](O)(C(=O)CO)C[C@@H]3O[C@H]1C[C@H](N)[C@@H](O)[C@H](C)O1 [Epirubicin hydrochloride] the ThS net change was 315. Work on COc1ccc(CCN)cc1OC.Cl [Homoveratrylamine] yielded a ThS net change of 439. C[C@]12CCC3[C@@H](CC[C@@H]4C[C@H](O)CC[C@]34C)[C@@H]1CCC2=O (stereo partly drawn) [3-alpha-Hydroxy-5-beta-androstan-17-one] showed a ThS net change of 426. COc1cc(C)c(/C=C/C(C)=C/C=C/C(C)=C/C(=O)O)c(C)c1C [Acitretin] gave a ThS net change of 316. CC(C)(C)NC(=O)[C@@H]1CN(Cc2cccnc2)CCN1C[C@@H](O)C[C@@H](Cc1ccccc1)C(=O)N[C@H]1c2ccccc2C[C@H]1O [Indinavir sulfate] was tested, and the ThS net change was 457. Molecule CC(=O)O[C@H]1CC[C@@]2(C)C(=CC[C@@H]3[C@@H]2CC[C@]2(C)C(=O)CC[C@@H]32)C1 [Dehydroisoandosterone 3-acetate] has a ThS net change of 423. COc1ccc2cc([C@@H](C)C(=O)[O-])ccc2c1.[Na+] [(R) -Naproxen sodium salt] was tested, and the ThS net change was 376. CN1[C@@H]2CC[C@H]1C[C@@H](OC(=O)[C@H](CO)c1ccccc1)C2 [Hyoscyamine (L)] showed a ThS net change of 434.

Same assay, conditions: 1280-compound library screen; ThS fluorescence net change over 16 h
For CC[C@@H](C(N)=O)N1CCCC1=O [Levetiracetam], the ThS net change was 407. For O=C(O)c1cccnc1 [Niacin], the ThS net change was 391. CNCCCC1c2ccccc2C=Cc2ccccc21 [Protriptyline hydrochloride] gave a ThS net change of 412. Molecule COc1c(N2C[C@@H]3CCCN[C@@H]3C2)c(F)cc2c(=O)c(C(=O)O)cn(C3CC3)c12 [Moxifloxacin] has a ThS net change of 413. Molecule COc1c2occc2c(OC)c2c(=O)cc(C)oc12 [Khellin] has a ThS net change of 389. CCCCC1C(=O)N(c2ccccc2)N(c2ccc(O)cc2)C1=O (stereo not drawn) [Oxyphenbutazone] showed a ThS net change of 398. CCS(=O)(=O)CCn1c([N+](=O)[O-])cnc1C [Tinidazole] was tested, and the ThS net change was 392. CS(=O)(=O)c1ccc([C@@H](O)[C@@H](CO)NC(=O)C(Cl)Cl)cc1 [Thiamphenicol] was tested, and the ThS net change was 380. For Cl.O=C1OC(CN2CCOCC2)CN1/N=C/c1ccc([N+](=O)[O-])o1 (stereo not drawn) [Furaltadone hydrochloride], the ThS net change was 385. For COc1cc(C(=O)NC2CCCNC2)cc(OC)c1OC (stereo not drawn) [Troxipide], the ThS net change was 407.

Same assay, conditions: 1280-compound library screen; […]
For CNCC(O)c1ccc(O)cc1 (racemic) [(+,-)-Synephrine], the ThS net change was 410. For C#CCN(C)[C@H](C)Cc1ccccc1 [Selegiline hydrochloride], the ThS net change was 388. For C#C[C@]1(O)CC[C@H]2[C@@H]3CCC4=CC(=O)CCC4=C3C=C[C@@]21CC [Gestrinone], the ThS net change was 397. Work on CC(=O)OC1CN2CCC1CC2 (stereo not drawn) [Aceclidine Hydrochloride] yielded a ThS net change of 409.

Same assay, conditions: flag: p-tau aggregation inhibitor, ThS net change more than 2 SD from mean
In the case of C=C1c2c(Cl)ccc(O)c2C(=O)C2=C(O)[C@]3(O)C(=O)C(C(N)=O)=C(O)[C@@H](N(C)C)[C@@H]3[C@@H](O)[C@H]12.O=C(O)c1cc(S(=O)(=O)O)ccc1O [Meclocycline sulfosalicylate], the “PTAI>2SD” value is reported as “*”. For COC(=O)Nc1nc2ccc(Sc3ccccc3)cc2[nH]1 [Fenbendazole], the “PTAI>2SD” value was “*”.

Same assay, conditions: flag: p-tau aggregation inhibitor, ThS net change more than 3 SD from mean
With C=Cc1c(C)c2cc3nc(cc4[nH]c(cc5nc(cc1[nH]2)C(C)=C5CCC(=O)O)c(CCC(=O)OC)c4C)[C@@]1(C)C3=CC=C(C(=O)OC)C1C(=O)OC (stereo partly drawn) [Verteporfin] the “PTAI>3SD” value was “*”.

Same assay, conditions: library screen, ThS fluorescence net change over 16 h with p-tau
C=Cc1c(C)c2cc3nc(cc4[nH]c(cc5nc(cc1[nH]2)C(C)=C5CCC(=O)O)c(CCC(=O)OC)c4C)[C@@]1(C)C3=CC=C(C(=O)OC)C1C(=O)OC (stereo partly drawn) [Verteporfin] was tested, and the ThS net change was -157. O=C(Nc1ccc([N+](=O)[O-])cc1Cl)c1cc(Cl)ccc1O [Niclosamide] gave a ThS net change of 199. C=C1c2c(Cl)ccc(O)c2C(=O)C2=C(O)[C@]3(O)C(=O)C(C(N)=O)=C(O)[C@@H](N(C)C)[C@@H]3[C@@H](O)[C@H]12.O=C(O)c1cc(S(=O)(=O)O)ccc1O [Meclocycline sulfosalicylate] showed a ThS net change of 171. With COc1ccc(C(=O)CC(=O)c2ccc(C(C)(C)C)cc2)cc1 [Avobenzone] the ThS net change was 250. For COC(=O)Nc1nc2ccc(Sc3ccccc3)cc2[nH]1 [Fenbendazole], the ThS net change was 148. For O=C1CN(/N=C/c2ccc([N+](=O)[O-])o2)C(=O)N1 [Nitrofurantoin], the ThS net change was 303.

Same assay, conditions: p-tau aggregation modulator screen of 1280-compound library; ThS fluorescence net change
C#C[C@]1(O)CC[C@H]2[C@@H]3CCC4=C(CCC(=O)C4)[C@H]3CC[C@@]21C [Norethynodrel] showed a ThS net change of 341. With COc1ccc(CC2c3cc(OC)c(OC)cc3CC[N+]2(C)CCC(=O)OCCCCCOC(=O)CC[N+]2(C)CCc3cc(OC)c(OC)cc3C2Cc2ccc(OC)c(OC)c2)cc1OC (stereo not drawn) [Atracurium besylate] the ThS net change was 370. For Nc1nc(N)c2nc(-c3ccccc3)c(N)nc2n1 [Triamterene], the ThS net change was 354. CC[C@]12CCCN3CCc4c(n(c5ccccc45)[C@@](O)(C(=O)OC)C1)[C@@H]32 [Vincamine] gave a ThS net change of 348. COc1cc(Cc2cnc(N)nc2N)cc(OC)c1OC [Trimethoprim] gave a ThS net change of 360. Molecule CC(NCCC(c1ccccc1)c1ccccc1)c1ccccc1 (stereo not drawn) [Fendiline hydrochloride] has a ThS net change of 335. With COc1ccc2c(c1)c(CC(=O)OCC(=O)O)c(C)n2C(=O)c1ccc(Cl)cc1 [Acemetacin] the ThS net change was 349. In the case of C=CCN1CC[C@]23c4c5ccc(O)c4O[C@H]2C(=O)CC[C@@]3(O)[C@H]1C5 [Naloxone hydrochloride], the ThS net change is reported as 349. Molecule Cc1c(O)c(=O)n(-c2ccccc2)n1C [Antipyrine, 4-hydroxy] has a ThS net change of 371. With Nc1nc(=O)n([C@@H]2CS[C@H](CO)O2)cc1F [(-)-Emtricitabine] the ThS net change was 359. CC(C)(C)NCC(O)c1cc(O)cc(O)c1.CC(C)(C)NCC(O)c1cc(O)cc(O)c1.O=S(=O)(O)O (stereo not drawn) [Terbutaline hemisulfate] was tested, and the ThS net change was 339. With CC(Cc1cccc(C(F)(F)F)c1)NCCOC(=O)c1ccccc1 (stereo not drawn) [Benfluorex] the ThS net change was 375. For CO/N=C(\C(=O)N[C@@H]1C(=O)N2C(C(=O)O)=C(COC(N)=O)CS[C@H]12)c1ccco1 [Cefuroxime sodium salt], the ThS net change was 365. For O=C(NCCNCC(O)COc1ccc(O)cc1)N1CCOCC1 (stereo not drawn) [Xamoterol hemifumarate], the ThS net change was 378. c1ccc2c(CC3=NCCN3)cccc2c1 [Naphazoline hydrochloride] gave a ThS net change of 361.

Same assay, conditions: p-tau aggregation modulator screen of the compound library, ThS fluorescence net change
CC(C)(C)NC[C@H](O)COc1nsnc1N1CCOCC1.O=C(O)/C=C\C(=O)O [Timolol maleate salt] was tested, and the ThS net change was 414. CCCCC[C@H](O)/C=C/[C@H]1[C@H](O)CC(=O)[C@@H]1CCCCCCC(=O)O [Alprostadil] showed a ThS net change of 445. CC=CC1=C(C(=O)O)N2C(=O)[C@@H](NC(=O)[C@H](N)c3ccc(O)cc3)[C@H]2SC1 (mixture of isomers) [Cefprozil] gave a ThS net change of 440. In the case of C[C@]12C[C@H](O)[C@H]3[C@@H](CCC4=CC(=O)CC[C@@]43C)[C@@H]1CC[C@@H]2C(=O)CO [Corticosterone], the ThS net change is reported as 416. COCC1=C(C(=O)OC(C)OC(=O)OC(C)C)N2C(=O)[C@@H](NC(=O)/C(=N\OC)c3csc(N)n3)[C@H]2SC1 (stereo partly drawn) [Cefpodoxime proxetil] gave a ThS net change of 454. C[C@H](CCC(=O)O)[C@H]1CC[C@H]2[C@@H]3CC[C@@H]4C[C@H](O)CC[C@]4(C)[C@H]3CC[C@]12C [Lithocholic acid] showed a ThS net change of 566. COc1c(N2CCNC(C)C2)c(F)cc2c(=O)c(C(=O)O)cn(C3CC3)c12 (stereo not drawn) [Gatifloxacin] was tested, and the ThS net change was 426. Nc1ccccc1S(N)(=O)=O [2-Aminobenzenesulfonamide] showed a ThS net change of 430. Cc1cccc(CN2CCN(C(c3ccccc3)c3ccc(Cl)cc3)CC2)c1.Cl.Cl (stereo not drawn) [Meclozine dihydrochloride] gave a ThS net change of 430. CC(C)(C(=O)O)c1ccc(C(O)CCCN2CCC(C(O)(c3ccccc3)c3ccccc3)CC2)cc1 (stereo not drawn) [Fexofenadine HCl] was tested, and the ThS net change was 435. Work on CC(=O)OCC(=O)[C@@]12N=C(C)O[C@@H]1C[C@H]1[C@@H]3CCC4=CC(=O)C=C[C@]4(C)[C@H]3[C@@H](O)C[C@@]12C [Deflazacort] yielded a ThS net change of 420. S=c1[nH]cnc2nc[nH]c12 [Mercaptopurine] showed a ThS net change of 426. For COc1ccnc(C[S+]([O-])c2nc3ccc(OC(F)F)cc3[nH]2)c1OC (stereo not drawn) [Pantoprazole sodium], the ThS net change was 443.

The molecules below were run against T2, p-tau (Homo sapiens, UniProt P10636) (assay: p-tau aggregation assay, dose response (ThS fluorescence, inducer-free)). Details: 6 µM p-tau, 6.25-150 µM benzodiazepine.
T2 construct: made in house; host or cells: E. coli (PIMAX system)
T2 sequence (P10636 1-412 isoform P10636-7): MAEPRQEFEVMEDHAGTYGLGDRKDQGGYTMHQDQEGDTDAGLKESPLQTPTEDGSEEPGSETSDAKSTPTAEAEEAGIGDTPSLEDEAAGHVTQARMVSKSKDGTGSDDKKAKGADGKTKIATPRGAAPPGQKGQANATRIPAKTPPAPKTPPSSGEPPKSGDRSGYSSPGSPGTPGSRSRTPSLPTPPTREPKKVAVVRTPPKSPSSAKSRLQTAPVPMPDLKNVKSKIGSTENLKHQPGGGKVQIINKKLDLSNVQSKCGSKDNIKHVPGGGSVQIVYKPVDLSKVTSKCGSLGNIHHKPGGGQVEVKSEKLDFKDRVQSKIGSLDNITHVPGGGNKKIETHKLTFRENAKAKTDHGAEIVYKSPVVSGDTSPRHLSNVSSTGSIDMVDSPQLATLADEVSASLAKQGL
Type: biochemical
Experimental: Aggregation of 6-µM p-tau under the influence of 30 µM of each of the library compounds or a DMSO vehicle control was monitored in 384-well plates every 10 min for ThS fluorescence changes over 16 h. To assess the quality of the high-throughput p-tau aggregation reactions, we used the T0 and T16hr ThS fluorescence units of no-compound control reactions to calculate the Z′-factor and coefficient of variation (CV), two commonly used criteria for robustness of high-throughput screens (HTS)[62]. A Z′-factor greater than 0.5 and CV smaller than 10% indicate robustness. […] To identify compounds with significant p-tau aggregation modulation, the net change of ThS fluorescence was calculated from all reactions (see Supplemental Table 1 for complete listing).
Aggregation of 6 µM of p-tau was done in the presence of the indicated concentrations of either compound. […] P-tau aggregation reactions with the C291S C322S (C/S) mutant p-tau were done in the presence of the indicated amounts of either compound. Shown are net changes of ThS over 16 h.
Given the tremendous socioeconomical burdens of AD, measures that prevent or delay the onset of the devastating neurodegeneration of AD will be highly impactful. If hyperphosphorylated tau-inflicted neuronal damages are an underpinning for AD and other tauopathies, enhancers of p-tau aggregation (PTAEs) may be risk factors for neurodegeneration. […] Prednicarbate is a synthetic corticosteroid for dermatological use, and carmofur (1-hexylcarbamoyl-5-fluorouracil) is an anti-neoplastic pyrimidine analogue. […] BZDs are among the most widely prescribed medication, in particular to the elderly, for depression and insomnia[70],[71]. We hypothesized that certain BZDs acted as a PTAE to potentiate p-tau aggregation and cytotoxicity. […] We therefore randomly picked nine prescription BZDs for p-tau aggregation assessment (Fig. 6; see Supplemental Fig. 5 for chemical structures). To 6-µM p-tau aggregation reactions, increasing doses of each of these BZDs were added.
Prednicarbate, a synthetic steroid, served as a PTAE control (yellow bars).
The aggregation assays over the course of this project have been done with multi-plate readers from different sources.
A common mix of 6 µM p-tau, 20 mM Tris pH 7.4, 1 mM DTT, and 20 µM ThS was assembled and dispensed to 384-well low-volume plates (10 µl per well) using BioTek EL406 Washer, followed by the addition of 150 nl of the Prestwick Library compounds (final concentration of 30 µM per well) or DMSO in a Beckman Coulter Biomek FX^P workstation. Each plate was covered with an Optical Adhesive Film and incubated at 37 °C for about 10 min. ThS fluorescence was measured every 10 min at 440/490 nm for 16 h by Biotek Synergy Neo Plate Reader. […] The real-time kinetics of ThS signals were collected using Gen5 software.
CCN(CC)CCN1C(=O)CN=C(c2ccccc2F)c2cc(Cl)ccc21 [flurazepam] was tested, and the “effect on p-tau aggregation (16-h net change of ThS fluorescence)” value was “enhanced p-tau aggregation in a dose-dependent manner”.
